Test results reported in patent US6291247A, “Methods of screening for factors that disrupt neurotrophin conformation and reduce neurotrophin biological activity” (priority 1996, dated 2001).

Legend:
[1] = molecular target: T1, p75^NTR and TrkA (Mus musculus, UniProt P01139); assay: Binding of 125I-NGF to PC12 cells (p75NTR + TrkA); set-up: species or system rat; conditions: 100 μM, 125I-NGF; 120 min
T1 construct: these cells express both NGF receptor types; endogenous in cells; host or cells: PC12 rat pheochromocytoma cells
Description: (§1) PC12 cells were grown in RPMI with 10% heat inactivated donor horse serum and 5% fetal calf serum. […] The tubes were incubated for 2 hr at 4° C. and 100 μl aliquots (providing triplicate data points for each sample) were transferred to 400 μl microcentrifuges containing 200 μl of 10% glycerol in HKR. Tubes were centrifuged for 2 minutes at 5,000 rpm, the tip containing the cell pellet cut off and radioactivity bound to the cells was determined.

[2] = system: T2, p75^NTR and TrkA; assay: Binding of 125I-NGF to PC12 cells (p75NTR + TrkA); set-up: species or system rat
T2 construct: these cells express both NGF receptor types; endogenous in cells; host or cells: PC12 rat pheochromocytoma cells
Description: as §1

[3] = molecular target: T3, NGF (Mus musculus, UniProt P01139); assay: NGF protomer crosslinking with BS3 (NGF conformation), metal ions; type: biochemical
T3 construct: homodimer
Description: For crosslinking NGF […], 0.4 mM BS^3 was added to the mixture and incubated for 30 minutes at 25° C. […] For CD studies, NGF (50 μg/ml) was dissolved in 50 mM Tris-HCl buffer and spectra recorded using a computer controlled Jasco J-600 spectropolarimeter. Samples were acquired in the absence or presence of Zn^2+ (100 μM) at 22° C. in a 2 mm quartz cell averaged over eight scans. Modification of His residues by DEPC was carried out as previously described, where the molar excess of DEPC added and the extent of reaction was determined by evaluating the loss of binding activity of the modified product.

[4] = system: PC12 cells; assay: NGF-dependent survival of PC12 cells; type: cell-based, rat
Description: (§2) Effects of divalent ions on NGF mediated survival and toxicity was evaluated using a colorimetric assay for the lysosomal enzyme acid phosphatase to determine cell number (Connolly, D. T., Knight, M. B., Harakas, N. K, Wittwer, A. J. & Feder, J. Determination of the number of endothelial cells in culture using an acid phosphatase assay. Anal. Biochem. 152, 136-140 (1986); Ueda, Y., Walsh, E., Nakanishi H. & Yoshida, K. A. colorometric assay method for the evaluation of neurotrophic activity in vitro. Neurosci. Lett. 165, 203-207 (1994)). […] To evaluate toxicity, the cells were seeded and maintained without NGF in RPMI with 10% heat inactivated donor horse serum and 5% fetal calf serum in the presence of additives. Loss in viable cell number was determined and expressed as a percent of control. NGF rescues PC12 cells from cell death in serum-free medium(Greene, L. A. Nerve growth factor prevents the death and stimulates neuronal differentiation of clonal PC12 pheochromocytoma cells in serum-free medium. J. Cell Biol. 78, 747-755 (1978)). NGF-dependent survival was assessed by harvesting PC12 cells in balanced salt solution followed with washing by 4 cycles of suspension and centrifugation in serum-free RPMI prior to seeding in 96 well plates. After incubation with additives, medium was removed from the wells and cells washed once with 200 μl PBS. Buffer containing 0.1M sodium acetate pH 5.5, 0.1% Triton X-100 and 10 mM p-nitrophenyl phosphate (Sigma 104 phosphatase substrate) was added to each well (100 μl). Plates were incubated at 37° C. for 3 hours. The reaction was stopped by the addition of 10 μl/well of 1N sodium hydroxide and the color development measured at 405 nm using a microplate reader. The relationship between cell number and enzyme activity was linear over the range 1000 to 15,000 cells.
(§3) To explore the ability of other transition metals to influence the biological activities of NGF, a series of cations known to mimic in certain respects the binding of zinc to proteins were tested. […] For this reason these ions were not tested in NGF- dependant growth phenomena. […] As these studies appeared to indicate potentially complex results upon metal ions binding to NGF, a receptor crosslinking system where specific receptor types could be identified was utilized.

[5] = system: PC12 cells; assay: Toxicity to PC12 cells; type: cell-based, rat; conditions: 100 μM
Description: as §2, §3

[6] = molecular target: p75^NTR /TrkA (Mus musculus, UniProt P01139); assay: Receptor crosslinking of 125I-NGF with transition metal ions (receptor selectivity); type: binding; conditions: 100 μM
Description: as §3

[7] = system: p75^NTR /TrkA; assay: as above; type: binding
Description: as §3

T3 sequence (P01139 122-239): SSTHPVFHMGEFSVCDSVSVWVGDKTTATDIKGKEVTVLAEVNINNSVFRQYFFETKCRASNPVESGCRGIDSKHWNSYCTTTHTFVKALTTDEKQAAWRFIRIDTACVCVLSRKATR
p75^NTR /TrkA (Mus musculus, UniProt P01139), sequence (P01139 122-239): as above
p75^NTR /TrkA (Mus musculus, UniProt P01139), sequence (P07174 30-425 partner): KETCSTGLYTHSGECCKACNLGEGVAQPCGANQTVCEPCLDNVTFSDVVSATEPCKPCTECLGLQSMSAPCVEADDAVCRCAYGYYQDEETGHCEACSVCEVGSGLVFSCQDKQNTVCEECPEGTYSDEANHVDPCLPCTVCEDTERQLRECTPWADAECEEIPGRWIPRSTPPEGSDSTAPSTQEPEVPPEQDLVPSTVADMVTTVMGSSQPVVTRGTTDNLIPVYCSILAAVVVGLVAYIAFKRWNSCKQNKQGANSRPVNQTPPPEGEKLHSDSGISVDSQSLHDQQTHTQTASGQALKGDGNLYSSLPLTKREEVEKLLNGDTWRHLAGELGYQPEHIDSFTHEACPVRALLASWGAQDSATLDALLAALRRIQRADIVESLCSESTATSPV
p75^NTR /TrkA (Mus musculus, UniProt P01139), sequence (P35739 33-799 partner): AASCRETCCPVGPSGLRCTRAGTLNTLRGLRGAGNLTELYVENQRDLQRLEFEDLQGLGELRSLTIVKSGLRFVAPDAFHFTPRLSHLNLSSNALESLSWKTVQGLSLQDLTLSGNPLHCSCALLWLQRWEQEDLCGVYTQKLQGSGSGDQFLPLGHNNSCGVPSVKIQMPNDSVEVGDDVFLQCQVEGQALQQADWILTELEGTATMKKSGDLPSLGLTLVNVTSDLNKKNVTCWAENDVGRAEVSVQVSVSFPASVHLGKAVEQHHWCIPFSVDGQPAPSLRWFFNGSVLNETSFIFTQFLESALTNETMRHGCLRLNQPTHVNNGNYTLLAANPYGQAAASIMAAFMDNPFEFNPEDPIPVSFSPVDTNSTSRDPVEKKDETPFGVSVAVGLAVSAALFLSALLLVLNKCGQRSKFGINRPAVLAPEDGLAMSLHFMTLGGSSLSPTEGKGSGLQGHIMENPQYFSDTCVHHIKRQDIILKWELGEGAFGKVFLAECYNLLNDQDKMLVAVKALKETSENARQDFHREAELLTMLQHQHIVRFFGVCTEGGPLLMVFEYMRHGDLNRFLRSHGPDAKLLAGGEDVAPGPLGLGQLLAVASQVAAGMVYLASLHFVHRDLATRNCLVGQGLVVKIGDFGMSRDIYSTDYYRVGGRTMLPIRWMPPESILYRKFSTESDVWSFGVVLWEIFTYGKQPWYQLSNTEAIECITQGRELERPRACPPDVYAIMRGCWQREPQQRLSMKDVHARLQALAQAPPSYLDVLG
T2 sequence (P01139 122-239): as the sequence (P01139 122-239) above
T1 sequence (P01139 122-239): as above
p75^NTR /TrkA, sequence (P01139 122-239): as above
p75^NTR /TrkA, sequence (P07174 30-425 partner): as the sequence (P07174 30-425 partner) above
p75^NTR /TrkA, sequence (P35739 33-799 partner): as the sequence (P35739 33-799 partner) above

[Ni+2] [Ni^2+]
Total Binding to PC12 cells [1]: 69 ± 18 % control
Prevention of 125I-NGF binding to PC12 cells [2]: did not show appreciable inhibition
Effect on conformation of NGF in protomer crosslinking [3]: did not appear to have an effect on the conformation
NGF Protomer Conformation (active/inactive) ([3]; 100 μM): inactive
Survival @ 50 pM NGF ([4]; 100 μM, 50 pM NGF): 15 ± 13 % control
Survival @ 1 nM NGF ([4]; 100 μM, 1 nM NGF): 23 ± 10 % control
Antagonism of NGF-dependent survival ([4]; high (1 nM) or low (50 pM) NGF): ability to antagonize the NGF-dependant survival
Toxicity (PC12 cell viability) [5]: 100 ± 19 % control
Receptor Selectivity (p75NTR/TrkA) [6]: TrkA only
Blocking of NGF binding to TrkA and p75NTR in receptor crosslinking [7]: selective for blocking the binding of NGF to TrkA but did not prevent the binding of NGF to p75^NTR
